{"source": "patent US4871528A", "about": "“Pharmaceutical compositions having antineoplastic activity” (Boehringer Biochemia Robin SpA, priority 1986, dated 1989)", "key": {"[1]": {"system": "advanced and relapsing ovarian tumor", "test": "high-dose cis-platinum+GSH in a patient with advanced and relapsing ovarian tumor (Example 3A)", "assay_type": "in vivo, human", "conditions": "in combination with glutathione", "description": "However, in the therapeutical practice, the treatment is usually interrupted after 2 or 3 cycles (400 mg/m^2 or 600 mg/m^2) because of the onset of serious side-effects, which can even be fatal.\nA patient having an advanced and relapsing ovarian tumor previously treated with cis-platinum, was treated with a combination of cis-platinum+GSH every four weeks. Cis-platinum was administered at a weekly dosage of 200 mg/m^2 (40 mg/m^2 i.v. in normal saline at 1-5 days) for five weeks; GSH was administered i.v. at a dosage of 35 mg/ mg of cis-platinum in normal saline, 30 minutes before administration of cis-platinum. The week of administration (5 administrations) was followed by three weeks of rest, and then the cycle was repeated, and so on, for a total of 5 cycles of administration extending over 17 weeks (5 weeks of actual treatment and 12 weeks (3 weeks X 4) of rest intervals)."}, "[2]": {"system": "advanced and relapsing ovarian tumor", "conditions": "administered without glutathione; severe side-effects; cited from earlier work"}, "P388 leukemia [3]": {"system": "P388 leukemia", "test": "Effect of GSH (i.v.) at different doxorubicin dosages (i.p.) on P388 leukemia in mice (Table 2)", "assay_type": "in vivo", "conditions": "DX 12,5 mg/kg i.p."}, "P388 leukemia [4]": {"system": "P388 leukemia", "test": "GSH and Doxorubicin effect on P388 leukemia in CD2F1 mice (Table 3)", "assay_type": "in vivo", "conditions": "GSH 375 mg/kg i.v. and/or DX 7,5 mg/kg i.p. (GSH/DX 50)", "description": "(§1) The experiments were carried out in a similar way to the experimental scheme of the previous tests 2 and 3. The glutathione was administered i.v. 30, before of doxorubicin. In the tests, whose experimental data are reported in the Tables 3 and 4, the doxorubicin is administered i.p. at a sub-optimal dose level (for the used treatment schedule), in order to evidentiate the synergic effect of the glutathione treatment.\nIn the test of Table 3 wherein P388 leukemic cells were inoculated, variable dosages of glutathione were used, with respect to the fixed dose of DX (7.5 mg/kg) so as to provide GSH/DX ratios respectively of 20 and 50 mg of GSH per mg of DX."}, "[5]": {"system": "P388/DX resistant leukemic cells", "test": "Effect of GSH and doxorubicin on DX-resistant P388/DX leukemia in CD2F1 mice (Table 4)", "assay_type": "in vivo", "description": "as §1\nIn the case of inoculation of P388/DX resistant leukemic cells an intermediate dose of glutathione was administered, corresponding to GSH/DX ratio of 25 mg/mg (total dose of GSH 187.5)."}, "P388 leukemia [6]": {"system": "P388 leukemia", "assay_type": "in vivo", "description": "In the Table 1, the results obtained in CD2F1 mice i.p. treated at the day 0 with […] P388 leukemia cells and treated. i.p. at the day 1 with doxorubicin (DX) (7.5 mg/kg) and/or with GSH (333 mg/mg doxorubicin) are reported.\nThe GSH was administered 30 min. before DX.\nThe experiment of the combination GSH+DX was repeated in 2 groups of animals.\nTMS means mean survival time in days, T/C % is a percent value of the response of drug treated animals in comparison with the control, taken as 100.\nTOX means the number of treated animals died before the control animals. LTS is the number of animals survived at long term (2 months at least).\nIt should be stressed that the test used an experimental model, the P388 leukemia, characterized by an exclusively intraperitoneal tumor growth, i.e. a growth in the cavity wherein the insulation of the tumoral cells has been carried out."}, "[7]": {"system": "anthracycline (doxorubicin) induced myocardiotoxicity", "test": "Protective effect of glutathione on doxorubicin induced myocardiotoxicity in rats", "assay_type": "in vivo, Sprague Dawley rats", "conditions": "doxorubicin 3 mg/kg i.v. and/or GSH i.v. 30 minutes before, every 7 days, 4 times; 8 weeks", "description": "Twenty-four Sprague Dawley rats, weighing 150-200 g, fed with standard diet and water \"ad libitum\", were randomized in 4 groups (A,B,C,D) 6 animals each.\nSix animals were treated i.v. in the morning (10 am.) with […]) dissolved in normal saline (total injected volume 1 ml/kg). After 30 minutes, the same animals were treated i.v. with doxorubicin (3 mg/kg) dissolved in normal saline (total injected volume 1 ml/kg).\nThe treatment has been then repeated after 7 days, for 4 consecutive times as a whole.\nSix animals were treated similarly to group A, except that glutathione was omitted and substituted with normal saline only.\nSix animals were treated similarly to group A, except that doxorubicin was substituted with normal saline only.\nSix animals were treated similarly to group A except that both drugs were substituted with normal saline.\nThe day of the first administration was defined \"zero day\" and all the animals were killed after 8 weeks from the start of the experiment.\nDuring the experiment, starting from the zero time, all the animals were evaluated weekly for body weight increase, electrocardiographic intervals Q-T and S-T.\nAfter the 8-week experiment, the necroscopic examination allowed to evaluate for each animal the degree of myocardial lesions expressed as an average of vacuolate cells for 10 observation fields at the optical microscope (200 x)."}, "P388 leukemia [8]": {"system": "P388 leukemia", "test": "Effect of GSH (i.v.) at different doxorubicin dosages (i.p.) on P388 leukemia in mice (Table 2)", "assay_type": "in vivo", "conditions": "for LTS >60 days / T/C % / TOX: in combination GSH 1500 mg/kg i.v.; for TMS: in combination GSH 1500 mg/kg i.v. 30' before", "description": "The experimental conditions are similar to that of the previous test.\nIn these tests, the glutathione has been administered i.v., 30' before of the optional i.p. administration of anthracycline, doxorubicin.\nThe GSH treated animals received an equal amount of drug (1500 mg/kg) whereas the doxorubicin treated animals received i.p. scalar amounts of anthracycline. The animals consecutively treated with GSH and DX received the two drugs in the ratios of 100, 125, 150 and 200 mg of GSH per mg of DX."}, "[9]": {"system": "human HT-29 cells (colon carcinoma)", "test": "In vitro activity of GSH and methotrexate on human HT-29 cells", "assay_type": "cell-based", "conditions": "MTX 24 h, read-out: concentration causing 50% of cell death", "description": "(5) In vitro activity of GSH and methotrexate (MTX) on human HT-29 cells (colon carcinoma). Human HT-29 cells (colon carcinoma) were used; the cells were pre-treated with GSH at the concentrations of 20 and 40 mg/ml and then exposed to MTX at the concentrations of 0.05, 0.1, 0.5 and 1 mg/ml for 24 h. The concentrations causing 50% of cell death turned out to be 0.12 mg/ml in the absence of GSH and about 0.04-0.06 mg/ml in the presence of GSH. The cells were cultivated in RPMI 1640 medium+10% of fetal calf serum."}, "[10]": {"conditions": "in combination GSH 1500 mg/kg i.v."}, "[11]": {"conditions": "GSH 187,5 mg/kg i.v. and/or DX 7,5 mg/kg i.p."}, "[12]": {"conditions": "day 1 i.p.: DX 7.5 mg/kg and/or GSH 333 mg/mg doxorubicin"}}, "note": "Read-outs that look alike come from different tables or passages of the source."}
{"smiles": "N.N.[Cl][Pt][Cl]", "note": "[CDDP, cis-diamine-dichloroplatinum]", "values": [{"measurement": "maximum applicable dosage of cis-platinum", "setting": "[1]", "result": "about 1000 mg/m^2"}, {"measurement": "maximum dosage of cis-platinum", "setting": "[2]", "result": "400-600 mg/m^2"}]}
{"smiles": "COc1cccc2c1C(=O)c1c(O)c3c(c(O)c1C2=O)C[C@@](O)(C(=O)CO)C[C@@H]3O[C@H]1C[C@H](N)[C@H](O)[C@H](C)O1", "note": "[DX, doxorubicin]", "values": [{"measurement": "T/C %", "setting": "P388 leukemia [3]; [10]", "result": 120, "unit": "%"}, {"measurement": "TOX", "setting": "P388 leukemia [3]; [10]", "result": "4/8"}, {"measurement": "TMS", "setting": "P388 leukemia [3]; in combination GSH 1500 mg/kg i.v. 30' before", "result": 12, "unit": "days"}, {"measurement": "LTS", "setting": "P388 leukemia [4]", "result": "0/10"}, {"measurement": "T/C %", "setting": "P388 leukemia [4]", "result": 163, "unit": "%"}, {"measurement": "TMS", "setting": "P388 leukemia [4]", "result": "16,7 days"}, {"measurement": "TOX", "setting": "P388 leukemia [4]", "result": "0/10"}, {"measurement": "LTS", "setting": "[5]; [11]", "result": "0/10"}, {"measurement": "T/C %", "setting": "[5]; [11]", "result": 118, "unit": "%"}, {"measurement": "TOX", "setting": "[5]; [11]", "result": "0/10"}, {"measurement": "TMS", "setting": "[5]; GSH 187,5 mg/kg i.v. and/or DX 7,5 mg/kg i.p. (GSH/DX 25 mg/mg)", "result": "11,4 days"}, {"measurement": "LTS (number of animals survived at long term, 2 months at least)", "setting": "P388 leukemia [6]; [12]", "result": "0/10"}, {"measurement": "T/C %", "setting": "P388 leukemia [6]; [12]", "result": 140, "unit": "%"}, {"measurement": "TOX (number of treated animals died before the control animals)", "setting": "P388 leukemia [6]; [12]", "result": "0/10"}, {"measurement": "TMS (mean survival time)", "setting": "P388 leukemia [6]; day 1 i.p.: DX 7.5 mg/kg and/or GSH 333 mg/mg doxorubicin 30 min. before DX", "result": 16, "unit": "days"}, {"measurement": "body growth curve, ECG recording (Q-T, S-T), number of vacuolate myocardial cells", "setting": "[7]", "result": "toxic and cardiological effects"}, {"measurement": "LTS >60 days", "setting": "P388 leukemia [8]; DX 10 mg/kg i.p.", "result": "0/8"}, {"measurement": "T/C %", "setting": "P388 leukemia [8]; DX 10 mg/kg i.p.", "result": 170, "unit": "%"}, {"measurement": "TOX", "setting": "P388 leukemia [8]; DX 10 mg/kg i.p.", "result": "0/8"}, {"measurement": "TMS", "setting": "P388 leukemia [8]; DX 10 mg/kg i.p.", "result": 17, "unit": "days"}, {"measurement": "LTS >60 days", "setting": "P388 leukemia [8]; DX 15 mg/kg i.p.", "result": "0/8"}, {"measurement": "T/C %", "setting": "P388 leukemia [8]; DX 15 mg/kg i.p.", "result": 60, "unit": "%"}, {"measurement": "TOX", "setting": "P388 leukemia [8]; DX 15 mg/kg i.p.", "result": "8/8"}, {"measurement": "TMS", "setting": "P388 leukemia [8]; DX 15 mg/kg i.p.", "result": 6, "unit": "days"}, {"measurement": "LTS >60 days", "setting": "P388 leukemia [8]; DX 7,5 mg/kg i.p.", "result": "0/8"}, {"measurement": "T/C %", "setting": "P388 leukemia [8]; DX 7,5 mg/kg i.p.", "result": 155, "unit": "%"}, {"measurement": "TOX", "setting": "P388 leukemia [8]; DX 7,5 mg/kg i.p.", "result": "0/8"}, {"measurement": "TMS", "setting": "P388 leukemia [8]; DX 7,5 mg/kg i.p.", "result": "15,5 days"}, {"measurement": "LTS >60 days", "setting": "P388 leukemia [8]; DX 12,5 mg/kg i.p.", "result": "0/8"}]}
{"smiles": "CN(Cc1cnc2nc(N)nc(N)c2n1)c1ccc(C(=O)N[C@@H](CCC(=O)O)C(=O)O)cc1", "note": "[MTX, methotrexate]", "values": [{"measurement": "IC50", "setting": "[9]; in the absence of GSH", "result": 120, "unit": "µg/mL"}, {"measurement": "IC50", "setting": "[9]; in the presence of GSH (pre-treated at 20 and 40 mg/ml)", "result": "40 to 60", "unit": "µg/mL"}]}
